From the NIST ThermoML archive (doi:10.1016/j.fluid.2004.11.020)
Numbers after ± are expanded uncertainties.

Test: Solid-liquid equilibrium temperature
Settings: closed cylinder with variable piston

CCCCCCCCCCCCCCCC [hexadecane]
Crystal
Settings | Solid-liquid equilibrium temperature [K]
9210 kPa | 293.15 ± 0.3
50650 kPa | 303.15 ± 0.58
95560 kPa | 313.15 ± 0.9
143920 kPa | 323.15 ± 1.2
195740 kPa | 333.15 ± 1.5
251030 kPa | 343.15 ± 1.9

CCCCCCCCCCCCCCCCCC [octadecane]
Crystal
Settings | Solid-liquid equilibrium temperature [K]
8860 kPa | 303.15 ± 0.3
49600 kPa | 313.15 ± 0.57
94900 kPa | 323.15 ± 0.88
144780 kPa | 333.15 ± 1.2
199220 kPa | 343.15 ± 1.5
258230 kPa | 353.15 ± 1.8

CCCCCCCCCCCCC [tridecane]
Crystal 1
Settings | Solid-liquid equilibrium temperature [K]
100 kPa | 268.21 ± 0.24
133010 kPa | 293.15 ± 1
197120 kPa | 303.15 ± 1.2
265400 kPa | 313.15 ± 1.6
337830 kPa | 323.15 ± 1.9
414420 kPa | 333.15 ± 2.2
495170 kPa | 343.15 ± 2.5
